In PubChem BioAssay (NCI):
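GI50 is the concentration that inhibits growth by half. TGI: total growth inhibition.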

Legend:
Assay in all cases: NCI anticancer screen, dose series, 384-well format
[1] = system: 786-0 renal
[2] = system: A498 renal
[3] = system: A549 NSCLC
[4] = system: ACHN renal
[5] = system: BT-549 breast
[6] = system: CAKI-1 renal
[7] = system: CCRF-CEM leukemia
[8] = system: COLO 205 colon
[9] = system: DU-145 prostate
[10] = system: EKVX NSCLC
[11] = system: HCC-2998 colon
[12] = system: HCT-116 colon
[13] = system: HCT-15 colon
[14] = system: HL-60(TB) leukemia
[15] = system: HOP-62 NSCLC
[16] = system: HOP-92 NSCLC
[17] = system: HS 578T breast
[18] = system: HT29 colon
[19] = system: IGROV1 ovarian
[20] = system: K-562 leukemia
[21] = system: KM12 colon
[22] = system: LOX IMVI melanoma
[23] = system: M14 melanoma
[24] = system: MALME-3M melanoma
[25] = system: MCF7 breast
[26] = system: MDA-MB-231 breast
[27] = system: MDA-MB-435 melanoma
[28] = system: MDA-MB-468 breast
[29] = system: MOLT-4 leukemia
[30] = system: NCI-H226 lung
[31] = system: NCI-H23 lung
[32] = system: NCI-H322M lung
[33] = system: NCI-H460 NSCLC
[34] = system: NCI-H522 lung
[35] = system: NCI/ADR-RES ovarian
[36] = system: OVCAR-3 ovarian
[37] = system: OVCAR-4 ovarian
[38] = system: OVCAR-5 ovarian
[39] = system: OVCAR-8 ovarian
[40] = system: PC-3 prostate
[41] = system: RPMI-8226 leukemia
[42] = system: RXF 393 renal
[43] = system: SF-268 CNS
[44] = system: SF-295 CNS
[45] = system: SF-539 CNS
[46] = system: SK-MEL-28 melanoma
[47] = system: SK-MEL-5 melanoma
[48] = system: SK-OV-3 ovarian
[49] = system: SN12C renal
[50] = system: SNB-19 CNS
[51] = system: SNB-75 CNS
[52] = system: SR leukemia
[53] = system: SW-620 colon
[54] = system: T-47D breast
[55] = system: TK-10 renal
[56] = system: U251 glioblastoma
[57] = system: UACC-257 melanoma
[58] = system: UO-31 renal
[59] = system: SK-MEL-2 melanoma
[60] = system: UACC-62 melanoma

## CCCS(=O)(=O)Nc1ccc(F)c(C(=O)c2c[nH]c3ncc(Cl)cc23)c1F
[1]
  GI50: 10.9 µM
  TGI: 25.6 µM
[2]
  GI50: 5.21 µM
  TGI: 20.3 µM
[3]
  GI50: 12.3 µM
  TGI: 41.2 µM
[4]
  GI50: 4.26 µM
  TGI: 18.7 µM
[5]
  GI50: 15.5 µM
  TGI: 29.3 µM
[6]
  GI50: 6.54 µM
  TGI: 46 µM
[7]
  GI50: 11.7 µM
  TGI: 24 µM
[8]
  GI50: 0.144 µM
  TGI: 13.6 µM
[9]
  GI50: 9.18 µM
  TGI: 27.9 µM
[10]
  GI50: 16.3 µM
  TGI: 41.3 µM
[11]
  GI50: 20.6 µM
  TGI: 35.1 µM
[12]
  GI50: 8.39 µM
  TGI: 23.8 µM
[13]
  GI50: 9.16 µM
  TGI: 22 µM
[14]
  GI50: 11.2 µM
  TGI: 23.3 µM
[15]
  GI50: 13.3 µM
  TGI: 32.5 µM
[16]
  GI50: 15 µM
  TGI: 36.3 µM
[17]
  GI50: 4.5 µM
  TGI: 15.4 µM
[18]
  GI50: 0.71 µM
  TGI: 17.1 µM
[19]
  GI50: 4.47 µM
  TGI: 17.3 µM
[20]
  GI50: 11.3 µM
  TGI: 23.7 µM
[21]
  GI50: 14.3 µM
  TGI: 33.3 µM
[22]
  GI50: 2.64 µM
  TGI: 15.9 µM
[23]
  GI50: 0.0582 µM
  TGI: 2.1 µM
[24]
  GI50: 0.0363 µM
  TGI: 0.118 µM
[25]
  GI50: 20.3 µM
  TGI: 50.7 µM
[26]
  GI50: 15.3 µM
  TGI: 29.8 µM
[27]
  GI50: 0.681 µM
  TGI: 17.7 µM
[28]
  GI50: 10.3 µM
  TGI: 23.5 µM
[29]
  GI50: 12.3 µM
  TGI: 24.9 µM
[30]
  GI50: 16.5 µM
  TGI: 32.6 µM
[31]
  GI50: 18.3 µM
  TGI: 37.8 µM
[32]
  GI50: 10.1 µM
  TGI: 80.2 µM
[33]
  GI50: 6.96 µM
  TGI: 21.3 µM
[34]
  GI50: 16.1 µM
  TGI: 32.1 µM
[35]
  GI50: 17.1 µM
  TGI: 33.6 µM
[36]
  GI50: 13.5 µM
  TGI: 29.7 µM
[37]
  GI50: 21.1 µM
  TGI: 59.1 µM
[38]
  GI50: 19.2 µM
  TGI: 64.3 µM
[39]
  GI50: 13.5 µM
  TGI: 39.5 µM
[40]
  GI50: 16.3 µM
  TGI: 41 µM
[41]
  GI50: 4.76 µM
  TGI: 15.7 µM
[42]
  GI50: 4.12 µM
  TGI: 13.8 µM
[43]
  GI50: 17.5 µM
  TGI: 44.7 µM
[44]
  GI50: 7.44 µM
  TGI: 27.3 µM
[45]
  GI50: 15.1 µM
  TGI: 35.3 µM
[46]
  GI50: 0.0544 µM
  TGI: 0.549 µM
[47]
  GI50: 1.05 µM
  TGI: 15 µM
[48]
  GI50: 4.11 µM
  TGI: 19.8 µM
[49]
  GI50: 19.6 µM
  TGI: 68.3 µM
[50]
  GI50: 31.3 µM
  TGI: 86 µM
[51]
  GI50: 11.2 µM
  TGI: 34.2 µM
[52]
  GI50: 3.93 µM
  TGI: 14.2 µM
[53]
  GI50: 31.6 µM
  TGI: 60 µM
[54]
  GI50: 17.7 µM
  TGI: 55.6 µM
[55]
  GI50: 10.3 µM
  TGI: 28.4 µM
[56]
  GI50: 13.1 µM
  TGI: 27.2 µM
[57]
  GI50: 0.183 µM
  TGI: 1.18 µM
[58]
  GI50: 13.3 µM
  TGI: 36.6 µM

## O=NN(CCCl)C(=O)NCCCl
[1]
  GI50: 43.3 µM
[5]
  GI50: 36 µM
[6]
  GI50: 81.2 µM
[7]
  GI50: 22.3 µM
  TGI: 40.9 µM
[12]
  GI50: 49.8 µM
[13]
  GI50: 46.5 µM
[14]
  GI50: 15.1 µM
  TGI: 28.5 µM
[15]
  GI50: 34.6 µM
[20]
  GI50: 46.5 µM
[22]
  GI50: 24.2 µM
[23]
  GI50: 69.9 µM
[24]
  GI50: 75.9 µM
[26]
  GI50: 55.9 µM
[28]
  GI50: 23.7 µM
[29]
  GI50: 15.6 µM
  TGI: 29.5 µM
[34]
  GI50: 32.4 µM
[39]
  GI50: 97.8 µM
[41]
  GI50: 20 µM
  TGI: 48.7 µM
[42]
  GI50: 56.9 µM
[43]
  GI50: 15.9 µM
[44]
  GI50: 25.4 µM
  TGI: 73 µM
[45]
  GI50: 24.4 µM
  TGI: 90.1 µM
[59]
  GI50: 61.5 µM
[49]
  GI50: 74.1 µM
[50]
  GI50: 56.2 µM
[51]
  GI50: 26.7 µM
[53]
  GI50: 54.2 µM
[56]
  GI50: 23.9 µM
[60]
  GI50: 19.4 µM
